Assay results reported in patent US20240293387A1, “Methods of Treating Fabry Disease in Pediatric Patients” (Amicus Therapeutics, Inc., priority 2021, published 2024).
Read-outs that look alike come from different tables or passages of the source.

Legend:
[1] = AT1001-020 Stage 1 pharmacokinetics (sparse plasma sampling, LC-MS/MS, popPK); assay type: in vivo, human
Description: Migalastat levels can be measured via methods known in the art. For example, if measuring migalastat from tissue samples, tissue aliquots may be homogenized (7 μL water per 1 mg tissue) using a homogenizer (e.g., FastPrep-24 from MP Biomedical, Irvine, CA). Microcentrifuge tubes containing 100 μl of the tissue homogenate or 50 μl of plasma may then be spiked with 500 ng/ml 13C d2-AT1001 HCl internal standard (manufactured by MDS Pharma Services). A 600 μl volume of 5 mM HCl in 95/5 MeOH:H2O can then be added and the tubes vortexed for 2 minutes, followed by centrifugation at 21000×g for 10 minutes at room temperature. […] After several wash steps and elution into a clean, 96-well plate, the extracts may be dried down under N2 and reconstituted with mobile phase A. Migalastat levels can then be determined by liquid chromatography-tandem mass spectroscopy (LC-MS/MS) (e.g., LC: Shimadzu; MS/MS: ABSciex API 5500 MS/MS). […] The following precursor ion->product ion transitions may be monitored: mass/charge (m/z) 164.1→m/z 80.1 for migalastat and m/z 167.1→m/z 83.1 for the internal standard. […] The ratio of the area under the curve for migalastat to that of the internal standard is then determined and final concentrations of migalastat in each sample calculated using the linear least squares fit equation applied to the calibration curve. […]
Plasma samples were analyzed using the LC-MS/MS method. […]

[2] = tested on: patients with Fabry disease with amenable mutations; assay type: in vivo, human
Description: These analyses included data from 4 Phase 2 and 4 Phase 3 clinical trials with the data cutoff of Feb.
FAB-CL-202 (NCT00283959), FAB-CL-203 (NCT00283933), and FAB-CL-204 (NCT00304512) were phase 2, open-label, noncomparative studies that evaluated the safety, tolerability, pharmacokinetics (PK), and pharmacodynamics (PD) of migalastat (dose range: 50-250 mg) in patients with Fabry disease.
FAB-CL-205 (NCT0052607) was a phase 2, long-term, open-label extension (OLE) study for patients completing phase 2 clinical trials, including FAB-CL-202, FAB-CL-203, and FAB-CL-204. The study included a period with migalastat 150 mg every other day (QOD), then a dose-escalation period, followed by 150 mg QOD.
FACETS (AT1001-011, NCT00925301) was a phase 3, placebo-controlled study designed to evaluate the efficacy, safety, and PD of 6 months of migalastat 150 mg QOD versus placebo, followed by an 18-month open label extension (OLE) of migalastat in ERT-naive patients with Fabry disease and migalastat-amenable GLA variants.
AT1001-041 (NCT01458119) was a long-term OLE study evaluating the long-term safety and efficacy of migalastat in patients completing FAB-CL-205, AT1001-011, or AT1001-012
AT1001-042 (NCT02194985) is an ongoing, long-term OLE study evaluating the long-term safety and efficacy of migalastat in patients who participated in AT1001-012 or AT1001-041.
The analysis evaluates CBV events reported as treatment-emergent adverse events (TEAEs) during migalastat 150 mg QOD treatment in patients with amenable mutations in phase 2 and phase 3 clinical trials.
CBV events were identified by searching medical history and TEAE listings with stroke-related terms, including brain stem ischemia, cerebral infarction, cerebral hemorrhage, cerebral ischemia, cerebrovascular accident, embolic stroke, and TIA.
Only amenable patients who received at least 1 dose of migalastat 150 mg QOD were included in this analysis.

[3] = tested on: pediatric subjects with Fabry disease and amenable GLA variants; test: AT1001-020 Stage 1 safety in pediatric subjects (interim analysis); details: Month 1
Description: All safety analyses were performed using the safety population.
During Stage 1, urinalysis (albumin, protein, specific gravity, pH, and microscopy) was the only laboratory parameter collected at Month 1 and therefore, the only laboratory parameter assessed for the Interim Analysis.

[4] = 150 mg QOD, FAB-CL 202, 203, 204, and 205 (n = 17)

OC[C@H]1NC[C@H](O)[C@@H](O)[C@H]1O [migalastat, (2R,3S,4R,5S)-2-(hydroxymethyl) piperdine-3,4,5-triol]
Cmax levels observed in the pediatric patients versus adults in study AT1001-011 ([1]; 123 mg capsule QOD): in line with the Cmax levels observed in adults patients | Exposure in adults and adolescents weighing >45 kg (popPK) ([1]; 123 mg capsule q.o.d., adolescent patients (n=9)): comparable | Any CBV event during treatment, unique patients ([2]; 150 mg QOD, ATTRACT (n = 49)): 2 (4%) | Brain stem ischemia during treatment, patients ([2]; 150 mg QOD, ATTRACT (n = 49)): 0 | Cerebral hemorrhage during treatment, patients ([2]; 150 mg QOD, ATTRACT (n = 49)): 0 | Cerebral infarction during treatment, patients ([2]; 150 mg QOD, ATTRACT (n = 49)): 0 | Cerebral ischemia during treatment, patients ([2]; 150 mg QOD, ATTRACT (n = 49)): 0 | Cerebrovascular accident during treatment, patients ([2]; 150 mg QOD, ATTRACT (n = 49)): 0 | Embolic stroke during treatment, patients ([2]; 150 mg QOD, ATTRACT (n = 49)): 0 | Transient ischemic attack during treatment, patients ([2]; 150 mg QOD, ATTRACT (n = 49)): 2 (4%) | Any CBV event during treatment, unique patients [2, 4]: 3 (18%) | Brain stem ischemia during treatment, patients [2, 4]: 0 | Cerebral hemorrhage during treatment, patients [2, 4]: 0 | Cerebral infarction during treatment, patients [2, 4]: 1 (6%) | Cerebral ischemia during treatment, patients [2, 4]: 1 (6%) | Cerebrovascular accident during treatment, patients [2, 4]: 1 (6%) | Embolic stroke during treatment, patients [2, 4]: 0 | Transient ischemic attack during treatment, patients [2, 4]: 1 (6%) | Any CBV event during treatment, unique patients ([2]; 150 mg QOD, FACETS (n = 48)): 3 (6%) | Brain stem ischemia during treatment, patients ([2]; 150 mg QOD, FACETS (n = 48)): 1 (2%) | Cerebral hemorrhage during treatment, patients ([2]; 150 mg QOD, FACETS (n = 48)): 1 (2%) | Cerebral infarction during treatment, patients ([2]; 150 mg QOD, FACETS (n = 48)): 0 | Cerebral ischemia during treatment, patients ([2]; 150 mg QOD, FACETS (n = 48)): 0 | Cerebrovascular accident during treatment, patients ([2]; 150 mg QOD, FACETS (n = 48)): 0 | Embolic stroke during treatment, patients ([2]; 150 mg QOD, FACETS (n = 48)): 0 | Transient ischemic attack during treatment, patients ([2]; 150 mg QOD, FACETS (n = 48)): 1 (2%) | Number of CBV events reported during treatment ([2]; 150 mg QOD, N = 114): 11 | Brain stem ischemia during treatment, patients ([2]; 150 mg QOD, Total (N = 114)): 1 (1%) | Cerebral hemorrhage during treatment, patients ([2]; 150 mg QOD, Total (N = 114)): 1 (1%) | Cerebral infarction during treatment, patients ([2]; 150 mg QOD, Total (N = 114)): 1 (1%) | Cerebral ischemia during treatment, patients ([2]; 150 mg QOD, Total (N = 114)): 1 (1%) | Cerebrovascular accident during treatment, patients ([2]; 150 mg QOD, Total (N = 114)): 1 (1%) | Embolic stroke during treatment, patients ([2]; 150 mg QOD, Total (N = 114)): 0 | Transient ischemic attack during treatment, patients ([2]; 150 mg QOD, Total (N = 114)): 4 (4%) | CBV events categorized as serious adverse events (SAE) ([2]; 150 mg QOD, of 11 CBV events): Seven | CBV events considered related to treatment ([2]; 150 mg QOD, of 11 CBV events): None | CBV events mild or moderate in severity ([2]; 150 mg QOD, of 11 CBV events): 82% | CBV events that led to treatment discontinuation ([2]; 150 mg QOD, of 11 CBV events): Two | Time on migalastat 150 mg QOD at first event onset, mean (SD) ([2]; 8 patients with CBV events): 1.1 (1.1) years | Patients with pre-migalastat CBV event who did not experience new CBV event during treatment ([2]; among the 16 patients with pre-migalastat CBV event): 10 (63%) | Overall incidence of CBV events during migalastat treatment ([2]; average of 4 years of migalastat): low | Changes in mean values from baseline for urinalysis parameters [3]: no clinically meaningful changes
